Our source for the Ki and EC50 values is patent US12358897B2, “Compounds and method of treating COVID-19” (Pfizer Inc., priority 2020, dated 2025).

Usually Ki stands for the dissociation constant of the complex between target and ligand, obtained from inhibition or displacement. One may read the EC50 as the concentration that produces a half-maximal response.

For test [1], the target named is T1, full-length SARS-CoV-2 3CL protease (Severe acute respiratory syndrome coronavirus 2, UniProt P0DTD1).
T1 construct: measures the activity of full-length SARS-CoV-2 3CL protease
The test is described as follows: SARS-CoV-2 Coronavirus 3C Protease FRET Assay (Dabcyl-KTSAVLQ-SGFRKME-Edans substrate). In kind it is biochemical. To be noted: 15 nM enzyme, 25 μM peptide substrate, 60 minutes at 23° C.; Morrison equation fit; read-out: Geometric Mean Ki.

The subject of test [2] is SARS-CoV-2 (USA_WA1/2020) in VeroE6 cells enriched for hACE2 expression. The test can be described thus: microbe, parasite or virus in culture. In kind it is cell-based. The note with it: Severe acute respiratory syndrome coronavirus 2, Vero C1008, 72 h, read-out: Geometric Mean EC50.

Turning to `COc1cccc2[nH]c(C(=O)N[C@@H](CC(C)C)C(=O)N[C@@H](C[C@@H]3CCNC3=O)C(=O)COC(=O)C(C)C)cc12` [Example 10, (3S)-3-({N-[(4-methoxy-1H-indol-2-yl)carbonyl]-L-leucyl}amino)-2-oxo-4-[(3S)-2-oxopyrrolidin-3-yl]butyl 2-methylpropanoate], the Ki in test [1] is 63.7 nM. The EC50 in test [2] is 205 nM.
In the case of `COc1cccc2[nH]c(C(=O)N[C@@H](CC(C)C)C(=O)N[C@@H](C[C@@H]3CCNC3=O)C(=O)COC(=O)C3CCCCC3)cc12` [Example 12, (3S)-3-({N-[(4-methoxy-1H-indol-2-yl)carbonyl]-L-leucyl}amino)-2-oxo-4-[(3S)-2-oxopyrrolidin-3-yl]butyl cyclohexanecarboxylate], the Ki in test [1] stood at 73.8 nM. Besides, the concentration giving a half-maximal response (EC50) in test [2] is 109 nM.
On to `COc1cccc2[nH]c(C(=O)N[C@@H](CC(C)C)C(=O)N[C@@H](C[C@@H]3CCNC3=O)C(=O)COC(=O)C3(C)CCC3)cc12` [Example 14, (3S)-3-({N-[(4-methoxy-1H-indol-2-yl)carbonyl]-L-leucyl}amino)-2-oxo-4-[(3S)-2-oxopyrrolidin-3-yl]butyl 1-methylcyclobutanecarboxylate], for which the Ki in test [1] came to 348 nM. The EC50 in test [2] turned out to be 505 nM.
As to `COc1cccc2[nH]c(C(=O)N[C@@H](CC(C)C)C(=O)N[C@@H](C[C@@H]3CCNC3=O)C(=O)COC(=O)c3c(C)nn(C)c3C)cc12` [Example 48, (3S)-3-({N-[(4-methoxy-1H-indol-2-yl)carbonyl]-L-leucyl}amino)-2-oxo-4-[(3S)-2-oxopyrrolidin-3-yl]butyl 1,3,5-trimethyl-1H-pyrazole-4-carboxylate], the Ki in test [1] came to 255 nM.
Regarding `COc1cccc2[nH]c(C(=O)N[C@@H](CC(C)C)C(=O)N[C@@H](C[C@@H]3CCNC3=O)C(=O)COC(=O)c3cn(C)cn3)cc12` [Example 51, (3S)-3-({N-[(4-methoxy-1H-indol-2-yl)carbonyl]-L-leucyl}amino)-2-oxo-4-[(3S)-2-oxopyrrolidin-3-yl]butyl 1-methyl-1H-imidazole-4-carboxylate], in test [1], the Ki stood at 152 nM.
For the compound `COc1cccc2[nH]c(C(=O)N[C@@H](CC(C)C)C(=O)N[C@@H](C[C@@H]3CCNC3=O)C(=O)COC(=O)c3ccccc3CN(C)C)cc12` [Example 53, (3S)-3-({N-[(4-methoxy-1H-indol-2-yl)carbonyl]-L-leucyl}amino)-2-oxo-4-[(3S)-2-oxopyrrolidin-3-yl]butyl 2-[(dimethylamino)methyl]benzoate], the Ki in test [1] was determined as 14 nM. Further, the EC50 in test [2] was determined as 538 nM.
On to `COc1cccc2[nH]c(C(=O)N[C@@H](CC(C)C)C(=O)N[C@@H](C[C@@H]3CCNC3=O)C(=O)COC(=O)c3c(C)ccnc3CN(C)C)cc12` [Example 59, (3S)-3-({N-[(4-methoxy-1H-indol-2-yl)carbonyl]-L-leucyl}amino)-2-oxo-4-[(3S)-2-oxopyrrolidin-3-yl]butyl 2-[(dimethylamino)methyl]-4-methylpyridine-3-carboxylate], for which, in test [1], the Ki came out at 13.6 nM.
Regarding `COc1cccc2[nH]c(C(=O)N[C@@H](CC(C)C)C(=O)N[C@@H](C[C@@H]3CCNC3=O)C(=O)COC(=O)c3c(C)ccnc3C)cc12` [Example 62, (3S)-3-({N-[(4-methoxy-1H-indol-2-yl)carbonyl]-L-leucyl}amino)-2-oxo-4-[(3S)-2-oxopyrrolidin-3-yl]butyl 2,4-dimethylpyridine-3-carboxylate], in test [1], the Ki was determined as 4.29 nM.
With `CCOc1nccc(C)c1C(=O)OCC(=O)[C@H](C[C@@H]1CCNC1=O)NC(=O)[C@H](CC(C)C)NC(=O)c1cc2c(OC)cccc2[nH]1` [Example 64, (3S)-3-({N-[(4-methoxy-1H-indol-2-yl)carbonyl]-L-leucyl}amino)-2-oxo-4-[(3S)-2-oxopyrrolidin-3-yl]butyl 2-ethoxy-4-methylpyridine-3-carboxylate], the Ki in test [1] was found to be 34.9 nM.
On to `COc1cccc2[nH]c(C(=O)N[C@@H](CC(C)C)C(=O)N[C@@H](C[C@@H]3CCNC3=O)C(=O)COC(=O)c3c(C)cc(C#N)cc3C)cc12` [Example 65, (3S)-3-({N-[(4-methoxy-1H-indol-2-yl)carbonyl]-L-leucyl}amino)-2-oxo-4-[(3S)-2-oxopyrrolidin-3-yl]butyl 4-cyano-2,6-dimethylbenzoate], for which, in test [1], the Ki was determined as 7.67 nM. For the same compound, in test [2], the EC50 is 51.3 nM.
Take `COc1cccc(C)c1C(=O)OCC(=O)[C@H](C[C@@H]1CCNC1=O)NC(=O)[C@H](CC(C)C)NC(=O)c1cc2c(OC)cccc2[nH]1` [Example 66, (3S)-3-({N-[(4-methoxy-1H-indol-2-yl)carbonyl]-L-leucyl}amino)-2-oxo-4-[(3S)-2-oxopyrrolidin-3-yl]butyl 2-methoxy-6-methylbenzoate]: the Ki in test [1] came to 39.6 nM.
As to `COc1cccc2[nH]c(C(=O)N[C@@H](CC(C)C)C(=O)N[C@@H](C[C@@H]3CCNC3=O)C(=O)COC(=O)c3c(C)cccc3Cl)cc12` [Example 67, (3S)-3-({N-[(4-methoxy-1H-indol-2-yl)carbonyl]-L-leucyl}amino)-2-oxo-4-[(3S)-2-oxopyrrolidin-3-yl]butyl 2-chloro-6-methyl benzoate], the Ki in test [1] is 8.82 nM. For the same compound, in test [2], the EC50 is 163 nM.
As to `COc1cccc2[nH]c(C(=O)N[C@@H](CC(C)C)C(=O)N[C@@H](C[C@@H]3CCNC3=O)C(=O)COC(=O)c3c(C)cncc3C)cc12` [Example 68, (3S)-3-({N-[(4-methoxy-1H-indol-2-yl)carbonyl]-L-leucyl}amino)-2-oxo-4-[(3S)-2-oxopyrrolidin-3-yl]butyl 3,5-di methylpyridine-4-carboxylate], the Ki in test [1] stood at 7.56 nM.
For the compound `COc1cccc2[nH]c(C(=O)N[C@@H](CC(C)C)C(=O)N[C@@H](C[C@@H]3CCNC3=O)C(=O)COC(=O)c3c(C)cccc3F)cc12` [Example 72, (3S)-3-({N-[(4-methoxy-1H-indol-2-yl)carbonyl]-L-leucyl}amino)-2-oxo-4-[(3S)-2-oxopyrrolidin-3-yl]butyl 2-fluoro-6-methylbenzoate], in test [1], the Ki came to 8.91 nM.
Take `COc1cc(C)c(C(=O)OCC(=O)[C@H](C[C@@H]2CCNC2=O)NC(=O)[C@H](CC(C)C)NC(=O)c2cc3c(OC)cccc3[nH]2)c(C)c1` [Example 73, (3S)-3-({N-[(4-methoxy-1H-indol-2-yl)carbonyl]-L-leucyl}amino)-2-oxo-4-[(3S)-2-oxopyrrolidin-3-yl]butyl 4-methoxy-2,6-dimethyl benzoate]: the Ki in test [1] is 117 nM.
Consider `COc1cccc2[nH]c(C(=O)N[C@@H](CC(C)C)C(=O)N[C@@H](C[C@@H]3CCNC3=O)C(=O)COC(=O)c3c(C)cc(F)cc3C)cc12` [Example 74, (3S)-3-({N-[(4-methoxy-1H-indol-2-yl)carbonyl]-L-leucyl}amino)-2-oxo-4-[(3S)-2-oxopyrrolidin-3-yl]butyl 4-fluoro-2,6-dimethylbenzoate], for which the Ki in test [1] worked out at 44.3 nM.
With `COc1cccc2[nH]c(C(=O)N[C@@H](CC(C)C)C(=O)N[C@@H](C[C@@H]3CCNC3=O)C(=O)COC(=O)c3c(C)nc(C4CCOCC4)nc3C)cc12` [Example 75, (3S)-3-({N-[(4-methoxy-1H-indol-2-yl)carbonyl]-L-leucyl}amino)-2-oxo-4-[(3S)-2-oxopyrrolidin-3-yl]butyl 4,6-di methyl-2-(tetrahydro-2H-pyran-4-yl)pyrimidine-5-carboxylate], in test [1], the inhibitory constant (Ki) worked out at 5.5 nM.
